This note sets out measurements from patent US7745450B2, “Pyrazolo[4,3-d]pyrimidines, processes for their preparation and methods for therapy” (Institute of Experimental Botany, priority 2002, dated 2010).

The target of one test is cdk1/cyclin B (CDC2) (Homo sapiens, UniProt P06493). Briefly: CDK inhibition assay, cdk1/cyclin B (CDC2) kinase, histone phosphorylation. Format: biochemical. The note with it: cell free system (Table 8). In outline:
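Radiometric endpoint kinase assay under linear conditions: histone (1 mg/ml) phosphorylated with 15 μM ATP and [γ-32P]ATP in 50 mM HEPES pH 7.4, 10 mM MgCl2, 1 mM DTT. IC50 obtained graphically from dose-response curves of % maximal activity, read by imaging analyzer.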

For test [1], the system named is CD34+CD38+ hematopoietic progenitors from adult bone marrow. The test is described as follows: Myeloid colony-forming unit (CFU) assay. It is filed as cell-based, human. The note with it: for IC50: 14 days; for Colony output for CFU-E, CFU-G and CFU-M (output of the different types of myeloid colonies): scored differentially. An excerpt: Adult Bone Marrow Cells (ABM): Bone marrow samples were obtained by sternal puncture from hematologically normal donors undergoing cardiac surgery, after obtaining informed consent according to the ethical regulations of the University of Antwerp. Cells were collected in IMDM supplemented with 10% FCS and 100 U/ml heparin and separated by density gradient as mentioned for PBMC. After washing, cells were resuspended in IMDM 10% FCS and were sorted on a FACStar (Becton Dickinson, Erembodegem, Belgium). Cell sorting: ABM cells (10^7 cells/ml) were incubated with 43A1 hybridoma supernatant at a 1/10 dilution for 20 minutes at 4° C. The supernatant of the 43A1 hybridoma (immunoglobulin IgG3) was kindly donated by Dr. […] (University of Tübingen, Germany) and was used as a source of anti-CD34 antibodies. After washing twice in IMDM, the cells were incubated with FITC-conjugated rabbit anti-mouse IgG (1/40 dilution) for 20 min at 4° C. […] After washing twice in IMDM, the cells were sorted on a FACStarPlus cell sorter equipped with an water-cooled argon ion laser (INNOVA Enterprise Ion Laser) with multiple wave length outputs including UV (488 nm). Cells with low-to-medium forward and low side scatter, highly positive green (CD34) fluorescence, and an orange (CD38) fluorescence signal lower than the mean fluorescence of cells labeled with an irrelevant isotype-matched control antibody were retained as CD34^+CD38^- cells; cells with an orange fluorescence above this threshold were retained as CD34^+CD38^+ cells. Myeloid Colony-forming unit (CFU) assays: Direct myeloid colony formation of CD34^+CD38^+ cells was assessed in a CFU assay. These assays were initiated with 500 cells per well and plated in duplicate in methylcellulose (0.9%) supplemented with 20% FCS, 1% bovine serum albumin (BSA), 10^-5 M mercaptoethanol and 10 vol. % 5637 conditioned medium of the 5637 bladder carcinoma cell line (containing G-CSF and GM-CSF), 2 U/ml erythropoietin and 30 U/ml interleukine-3 (IL-3). […] The following colony types were scored: myeloid colonies: macrophage (CFU-M), granulocyte (CFU-G), and granulocyte-macrophage (CFU-GM); erythroid colonies (BFU-E (burst-forming units, erythroid) and CFU-E); and mixed erythroid-myeloid colonies (CFU-Mix). CD34^+CD38^+ hematopoietic progenitors (HPC) from adult bone marrow were isolated and investigated for response to novel compounds. CD34^+CD38^+ cells were grown in a methylcellulose system in the presence of increasing concentrations of compounds.

Test [2] relates to T-lymphocyte leukemia Molt3 cell line. The test is described as follows: Cell proliferation of Molt3, flow cytometric cell count. The note with it: 96 hours. It is filed as cell-based, human. The method, then:
(§1) Cell lines: Human leukemic cell lines were obtained from the American Type Culture Collection (ATCC, Rockville, Md., USA). They were cultured in Iscove's Modified Dulbecco's Medium (IMDM) supplemented with 10% heat inactivated fetal calf serum (FCS), 200 U/ml penicillin, 200 μg/ml streptomycin and 1 μg/ml amphotericin B. Cells were cultured in a 5% CO2-95% air fully humidified incubator. For effects on clonogenic output, 1000 cells/well were plated in duplicate in methylcellulose (0.9%), supplemented with 20% FCS for 14 days.
(§2) Cells were plated at 10000 per well in 200 μl IMDM medium and incubated with 0-50 μM of the novel compounds (Tab 8), by addition of drug directly to the culture medium and incubated at 37° C. for 96 hours (Tab 8). Absolute cell number was determined by addition of a known concentration Fluoresbrite microspheres (FITC) (Polysciences, Inc.). The absolute number of cells/well was calculated as: {(total number of beads added/well)/(number of beads measured)×(number of measured cells in the gate of interest)}. All analyses were performed with a FACScan (BD), using CELLQuest software (Becton Dickinson).
Response of the myeloid leukemia KG1 and T-lymphocyte leukemia Molt3 cell lines to the cytostatic effect of the novel compounds was determined using the above-mentioned standardized bead suspension that was used to determine the absolute cell number by flow cytometric (FCM) measurement. Cells were grown in the presence of increasing concentration of the novel compounds.
For orientation: In flow cytometry, cells or beads pass a laser one at a time.

Test [3] has as its system PHA-stimulated lymphocytes (PBMC). The test is described as follows: Proliferation of PHA-stimulated lymphocytes (PBMC), flow cytometric cell count. The note with it: 96 hours, IL-2. It is filed as cell-based, human. How it is done: Peripheral blood mononuclear cells (PBMC): Human peripheral blood mononuclear cells were isolated by density gradient (Ficoll-Hypaque) (LSM, ICN Biomedicals Inc.). PBMC were stimulated with 5 μg/ml phytohemaglutinin A (PHA) (Sigma) during 24-48 hours in IMDM supplemented with 10% FCS at 37° C. After washing off the PHA, PBMC were incubated with interleukin-2 (IL-2) (10 U/ml) (Genzyme).
as §2
PHA-stimulated lymphocytes (PBMC) were tested for their cytotoxicity as one of the normal counterparts of the cell lines. Cells were grown for 96 hours in the presence of IL-2 and different concentrations of the novel compounds and cell number was counted on the flow cytometer.

In another test the test system is KG1. Briefly: Clonogenic output of KG1 in methylcellulose. It is filed as cell-based, human. The settings on record: 25 μM. The method, then:
as §1
Clonogenic output of KG1 was tested in methylcellulose with 25 μM of some of the novel compounds. Colony output vs. control cultures without novel compound, was 16% for 26, 19% for […] and 0% for 201.

Setting [4] is: total colony output, read-out: CFU IC50.

Read-outs that look alike come from different tables or passages of the source.

Chain of cdk1/cyclin B (CDC2) (P06493 whole entry, species assumed): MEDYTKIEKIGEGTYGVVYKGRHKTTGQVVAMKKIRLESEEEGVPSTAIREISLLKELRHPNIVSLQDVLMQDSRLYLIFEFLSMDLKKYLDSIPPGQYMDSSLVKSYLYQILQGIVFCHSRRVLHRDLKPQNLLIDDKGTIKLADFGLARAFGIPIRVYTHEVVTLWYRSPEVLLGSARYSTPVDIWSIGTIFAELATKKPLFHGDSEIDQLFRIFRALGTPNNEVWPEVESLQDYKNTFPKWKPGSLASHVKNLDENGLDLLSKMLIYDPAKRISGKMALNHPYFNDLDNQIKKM
Chain of cdk1/cyclin B (CDC2) (P14635 whole entry partner, species assumed): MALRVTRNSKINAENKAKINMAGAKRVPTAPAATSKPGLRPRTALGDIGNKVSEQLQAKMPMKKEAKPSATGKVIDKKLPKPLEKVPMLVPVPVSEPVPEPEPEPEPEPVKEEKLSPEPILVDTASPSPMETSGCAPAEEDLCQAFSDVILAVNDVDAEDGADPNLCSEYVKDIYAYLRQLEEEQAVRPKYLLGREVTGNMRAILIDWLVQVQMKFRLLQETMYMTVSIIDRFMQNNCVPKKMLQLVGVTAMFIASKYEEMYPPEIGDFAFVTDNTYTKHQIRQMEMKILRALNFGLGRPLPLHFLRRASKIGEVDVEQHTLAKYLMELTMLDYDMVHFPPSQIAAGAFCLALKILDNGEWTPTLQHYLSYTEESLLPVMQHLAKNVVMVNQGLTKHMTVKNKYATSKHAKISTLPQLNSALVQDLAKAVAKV

Regarding “5-(3-hydroxypropylamino)-7-[(R,S)-(1-phenyl-2-hydroxyethyl)amino-3-isopropylpyrazolo[4,3-d]pyrimidine [Compound 172]”, the IC50 (commonly the concentration that inhibits the measured activity by half) against cdk1/cyclin B (CDC2) is over 50 µM; in test [1] (setting [4]), over 20 µM; in test [2], 8 ± 1.5 µM; in test [3], 4 ± 0.5 µM. In addition, the “Colony output for CFU-E, CFU-G and CFU-M (output of the different types of myeloid colonies)” value in test [1] was “significantly lower colony output”.
With `CCCCCCNc1nc(NC(CO)c2ccccc2)c2[nH]nc(C(C)C)c2n1` (stereo not shown) [Compound 98, 5-(hexylamino)-7-(1-phenyl-2-hydroxyethylamino)-3-isopropylpyrazolo[4,3-d]pyrimidine], the IC50 against cdk1/cyclin B (CDC2) is 30 µM; in test [1] (Homo sapiens, 336 h, methylcellulose, read-out: IC50 on CD34+CD38+ hematopoietic progenitors), over 50 µM; in test [1] (Homo sapiens, 336 h, total colony output, read-out: CFU IC50), 5.4 ± 0.4 µM; in test [2] (Homo sapiens, MOLT-3), 8 ± 0.4 µM; in test [3] (Homo sapiens, Lymphocyte), 18 ± 1 µM. Moreover, the “Colony output vs. control cultures” value in the test on KG1 was 19%.
For “5-(3-aminoethylamino)-7-(3,4-dihydroxybenzyl)amino-3-isopropylpyrazolo[4,3-d]pyrimidine [Compound 201]”, the IC50 worked out at 0.5 µM at cdk1/cyclin B (CDC2), 4.5 µM in test [1] (setting [4]), 12 ± 1.8 µM in test [2] and 8 ± 2.2 µM in test [3]. Further, in the test with KG1, the “Colony output vs. control cultures” value was found to be 0%. For the same molecule, in test [1], the “Colony output for CFU-E, CFU-G and CFU-M (output of the different types of myeloid colonies)” value is reported as “significantly lower colony output”.
For “5-(methylthio)-7-[N-(3,4-dihydroxybenzyl-N-methyl]amino-3 isopropylpyrazolo[4,3-d]pyrimidine [Compound 26]”, the IC50 on cdk1/cyclin B (CDC2) was over 100 µM; in test [1] (setting [4]), over 50 µM; in test [2] it was 17 ± 2.9 µM; in test [3] it was 16.5 ± 0.8 µM. The “Colony output vs. control cultures” value in the test with KG1 is listed as 16%. Besides, in test [1], the “Colony output for CFU-E, CFU-G and CFU-M (output of the different types of myeloid colonies)” value is “no significant difference”.
For the molecule “5-(3-aminopropylamino)-7-benzylamino-3-isopropylpyrazolo[4,3-d]pyrimidine [Compound 17]”, the IC50 was 11 µM against cdk1/cyclin B (CDC2), 17 µM in test [1] (setting [4]), 9.3 ± 0.3 µM in test [2] and 4 ± 0.2 µM in test [3]. The “Colony output for CFU-E, CFU-G and CFU-M (output of the different types of myeloid colonies)” value in test [1] is on record as “significantly lower colony output”.
